Results as given in patent EP0306455A1, “Cyclodextrin complexes of bis-biguanido hexane compounds” (WARNER-LAMBERT COMPANY, priority 1987, dated 1989).
Structures can show the parent of a compound that is named as a salt. Where two headings read alike, the source gives them in different places.

Key:
A.viscosus = assay: Anti-microbial activity (MIC and MLC); format: cell-based; conditions: complex compared with uncomplexed chlorhexidine digluconate
Text: (§1) A comparison of the anti-microbial activity of chlorhexidine digluconate and beta-cyclodextrin complexed chlorhexidine digluconates were compared against four microorganisms, C.albicans, S. anaguis, S.mutans and A.viscosus.

C.albicans = assay: Anti-microbial activity (MIC and MLC); format: cell-based; conditions: complex compared with uncomplexed chlorhexidine digluconate
Text: as §1

S. anaguis = assay: Anti-microbial activity (MIC and MLC); format: cell-based; conditions: complex compared with uncomplexed chlorhexidine digluconate
Text: as §1

S.mutans = assay: Anti-microbial activity (MIC and MLC); format: cell-based; conditions: complex compared with uncomplexed chlorhexidine digluconate
Text: as §1

[1] = Description: Free chlorhexidine has a water solubility of about 8 mg. per 100 ml. of water at room temperature.
[2] = background statement, temperature not given; dihydrochloride; cited from earlier work

Row | water solubility ([1]; water) | water solubility [1] | SMILES | minimum inhibitory concentration (MIC) (A.viscosus) | minimum lethal concentration (MLC) (A.viscosus) | minimum inhibitory concentration (MIC) (C.albicans) | minimum lethal concentration (MLC) (C.albicans) | minimum inhibitory concentration (MIC) (S. anaguis) | minimum lethal concentration (MLC) (S. anaguis) | minimum inhibitory concentration (MIC) (S.mutans) | minimum lethal concentration (MLC) (S.mutans) | water solubility [2]
1 |  |  | N=C(NCCCCCCNC(=N)NC(=N)Nc1ccc(Cl)cc1)NC(=N)Nc1ccc(Cl)cc1 [chlorhexidine digluconate] | similar | similar | similar | similar | similar | similar | similar | similar | 
2 | 60 mg. per 100 ml. of water |  | [H]/N=C(\N/C(=N/[H])NCCCCCCNC(=N)NC(=N)Nc1ccc(Cl)cc1)Nc1ccc(Cl)cc1 [chlorhexidine dihydrochloride] |  |  |  |  |  |  |  |  | ~60 mg per 100 ml of water
3 | 8 mg. per 100 ml. of water | about 8 mg. per 100 ml. of water | [H]/N=C(\N/C(=N/[H])NCCCCCCNC(=N)NC(=N)Nc1ccc(Cl)cc1)Nc1ccc(Cl)cc1 [chlorhexidine, 1,6-di(p-chlorophenylbiguanides) hexane] |  |  |  |  |  |  |  |  | 
